Data from US8062995B2, “Dioxazine-substituted arylamides” (Bayer CropScience AG, priority 2005, dated 2011).

Assays:
[1] = system: caterpillars of the army worm (Spodoptera frugiperda); experiment: Spodoptera frugiperda test (SPODFR spray treatment); format: in vivo; details: for Kill rate after 7d in %: 100 g/ha, spray treatment
Protocol: Spodoptera frugiperda Test (SPODFR Spray Treatment) Solvents: 78 parts by weight of acetone • • 1.5 parts by weight of dimethylformamide Emulsifier: 0.5 part by weight of alkylaryl polyglycol ether To produce a suitable preparation of active compound, 1 part by weight of active compound is mixed with the stated amounts of solvents and emulsifier and the concentrate is diluted with emulsifier-containing water to the desired concentration. Discs of maize leaves (Zea mays) are sprayed with an active compound preparation of the desired concentration and after drying populated with caterpillars of the army worm (Spodoptera frugiperda). After the desired period of time, the activity in % is determined. 100% means that all of the caterpillars have been killed; 0% means that none of the caterpillars have been killed.

[2] = system: caterpillars of the diamondback moth (Plutella xylostella); experiment: Plutella test (leaf dip); format: in vivo
Protocol: (§1) Plutella Test Solvent: 7 parts by weight of dimethylformamide Emulsifier: 2 parts by weight of alkylaryl polyglycol ether To produce a suitable preparation of active compound, 1 part by weight of active compound is mixed with the stated amounts of solvent and emulsifier and the concentrate is diluted with emulsifier-containing water to the desired concentration. Cabbages leaves (Brassica oleracea) are treated by being dipped into the active compound preparation of the desired concentration and populated with caterpillars of the diamondback moth (Plutella xylostella) while the leaves are still moist. After the desired period of time, the kill in % is determined. 100% means that all caterpillars have been killed; 0% means that none of the caterpillars have been killed.

[3] = system: larvae of the mustard beetle (Phaedon cochleariae); experiment: Phaedon test (sprayed Chinese cabbage discs); format: in vivo; details: for Kill rate after 7d in %: 100 g/ha
Protocol: (§2) Phaedon Test Solvents: 78 parts by weight of acetone • • 1.5 parts by weight of dimethylformamide Emulsifier: 0.5 part by weight of alkylaryl polyglycol ether To produce a suitable preparation of active compound, 1 part by weight of active compound is mixed with the stated amounts of solvents and emulsifier and the concentrate is diluted with emulsifier-containing water to the desired concentration. Discs of Chinese cabbage (Brassica pekinensis) are sprayed with an active compound preparation of the desired concentration and, after drying, populated with larvae of the mustard beetle (Phaedon cochleariae). After the desired period of time, the activity in % is determined. 100% means that all beetle larvae have been killed; 0% means that none of the beetle larvae have been killed.

[4] = logP determination by HPLC (reversed-phase C18), EEC Directive 79/831 Annex V.A8; format: physicochemical; details: HPLC reversed-phase C18, 43° C., acidic range pH 2.7
Protocol: The logP values given in the tables and Preparation Examples above are determined in accordance with EEC Directive 79/831 Annex V.A8 by HPLC (High Performance Liquid Chromatography) on a reversed-phase column (C 18). Temperature: 43° C. The determination by LC-MS in the acidic range is carried out at pH 2.7 using 0.1% aqueous formic acid and acetonitrile (contains 0.1% formic acid) as mobile phases; linear gradient from 10% acetonitrile to 95% acetonitrile. Calibration is carried out using unbranched alkan-2-ones (having 3 to 16 carbon atoms) with known logP values (determination of the logP values by the retention times using linear interpolation between two successive alkanones).

[5] = system: caterpillars of the army worm (Spodoptera exigua); experiment: Spodoptera exigua test (leaf dip); format: in vivo
Protocol: as §1, with “Spodoptera exigua” for “Plutella”, “Cabbage” for “Cabbages”, “army worm (Spodoptera exigua)” for “diamondback moth (Plutella xylostella)”

[6] = system: Spodoptera exigua, resistant strain; experiment: Spodoptera exigua test; resistant strain; format: in vivo; details: for Kill rate after 7d in %: resistant strain
Protocol: Spodoptera exigua Test; Resistant Strain
Solvent: 7 parts by weight of dimethylformamide
Emulsifier: 2 parts by weight of alkylaryl polyglycol ether
To produce a suitable preparation of active compound, 1 part by weight of active compound is mixed with the stated amounts of solvent and emulsifier and the concentrate is diluted with emulsifier-containing water to the desired concentration.
Cabbage leaves (Brassica oleracea) are treated by being dipped into the active compound preparation of the desired concentration and populated with caterpillars of the army worm (Spodoptera exigua, resistant strain) while the leaves are still moist.
After the desired period of time, the kill in % is determined. 100% means that all caterpillars have been killed; 0% means that none of the caterpillars have been killed.

[7] = system: Spodoptera frugiperda larvae; experiment: Spodoptera frugiperda test (treatment by watering); format: in vivo; details: for Kill rate after 14d in %: 20 ppm, treatment by watering
Protocol: Spodoptera frugiperda Test Solvent: 7 parts by weight of dimethylformamide Emulsifier: 2 parts by weight of alkylaryl polyglycol ether To produce a suitable preparation of active compound, 1 part by weight of active compound is mixed with the stated amounts of solvent and emulsifier and the concentrate is diluted with water to the desired concentration. Maize plants (Zea mays) are watered with an active compound preparation of the desired concentration and infected with Spodoptera frugiperda larvae. After the desired period of time, the kill in % is determined. 100% means that all larvae have been killed; 0% means that none of the larvae have been killed.

[8] = system: caterpillars of the cotton bollworm (Heliothis armigera); experiment: Heliothis armigera test (leaf dip); format: in vivo
Protocol: as §1, with “Heliothis armigera” for “Plutella”, “Soya bean” for “Cabbages”, “(Glycine max.)” for “(Brassica oleracea)”, “cotton bollworm (Heliothis armigera)” for “diamondback moth (Plutella xylostella)”

[9] = system: green peach aphid (Myzus persicae); experiment: Myzus test (MYZUPE spray treatment); format: in vivo; details: for Kill rate after 5d in %: 100 g/ha, spray treatment
Protocol: as §2, with “Myzus” for “Phaedon”, “Test (MYZUPE Spray Treatment)” for “Test”, “pekinensis), which are infested by all stages of the green peach aphid (Myzus persicae)” for “pekinensis)”, “concentration.” for “concentration and, after drying, populated with larvae of the mustard beetle (Phaedon cochleariae).”, “aphids” for “beetle larvae”

[10] = system: green peach aphid (Myzus persicae); experiment: Myzus test; oral; format: in vivo; details: for Kill rate after 5d in %: 100 ppm, oral
Protocol: Myzus Test; Oral Solvent: 80 parts by weight of acetone To produce a suitable preparation of active compound, 1 part by weight of active compound is mixed with the stated amounts of solvent and the concentrate is diluted with water to the desired concentration. Vessels are populated with all stages of the green peach aphid (Myzus persicae) which are treated by sucking the active compound preparation of the desired concentration. After the desired period of time, the activity in % is determined. 100% means that all aphids have been killed; 0% means that none of the aphids have been killed.

## Cc1cc(Cl)cc(C2=NOCCO2)c1NC(=O)c1cc(C(F)(F)F)nn1-c1ncccc1Cl [Example I-1-6]
[1]
  activity in the Spodoptera frugiperda test, spray treatment (in words): good activity
  Kill rate after 7d in %: 100%
[2]
  activity in the Plutella test (in words): good activity
[2]; 20 ppm
  Kill rate after 7d in %: 100%
[3]
  activity in the Phaedon test (in words): good activity
  Kill rate after 7d in %: 100%
[4]
  logP: 3.50
[5]
  activity in the Spodoptera exigua test (in words): good activity
[5]; 100 ppm
  Kill rate after 7d in %: 100%
[6]
  activity in the Spodoptera exigua test, resistant strain (in words): good activity
[6]; 20 ppm
  Kill rate after 7d in %: 100%
[7]
  activity in the Spodoptera frugiperda test, watering (in words): good activity
  Kill rate after 14d in %: 98%

## Cc1cc(Br)cc(C2=NOCCO2)c1NC(=O)c1cc(C(F)(F)F)nn1-c1ncccc1Cl [Example I-1-11]
[1]
  activity in the Spodoptera frugiperda test, spray treatment (in words): good activity
  Kill rate after 7d in %: 100%
[2]
  activity in the Plutella test (in words): good activity
[2]; 20 ppm
  Kill rate after 7d in %: 80%
[3]
  activity in the Phaedon test (in words): good activity
  Kill rate after 7d in %: 100%
[4]
  logP: 3.58
[5]
  activity in the Spodoptera exigua test (in words): good activity
[5]; 20 ppm
  Kill rate after 7d in %: 100%
[8]
  activity in the Heliothis armigera test (in words): good activity
[8]; 20 ppm
  Kill rate after 7d in %: 100%
[6]
  activity in the Spodoptera exigua test, resistant strain (in words): good activity
[6]; 20 ppm
  Kill rate after 7d in %: 80%
[7]
  activity in the Spodoptera frugiperda test, watering (in words): good activity
  Kill rate after 14d in %: 98%

## Cc1cccc(C2=NOCCN2)c1NC(=O)c1cc(Cl)nn1-c1ncccc1Cl [Example I-1-17]
[1]
  activity in the Spodoptera frugiperda test, spray treatment (in words): good activity
  Kill rate after 7d in %: 100%
[2]
  activity in the Plutella test (in words): good activity
[2]; 4 ppm
  Kill rate after 7d in %: 100%
[3]
  activity in the Phaedon test (in words): good activity
[4]
  logP: 1.65
[9]
  activity in the Myzus test, spray treatment (in words): good activity
  Kill rate after 5d in %: 100%
[5]
  activity in the Spodoptera exigua test (in words): good activity
[5]; 4 ppm
  Kill rate after 7d in %: 100%
[8]
  activity in the Heliothis armigera test (in words): good activity
[8]; 4 ppm
  Kill rate after 7d in %: 100%
[6]
  activity in the Spodoptera exigua test, resistant strain (in words): good activity
[6]; 4 ppm
  Kill rate after 7d in %: 100%
[7]
  Kill rate after 14d in %: 98%

## Cc1cc(I)cc(C2=NOCCN2)c1NC(=O)c1cc(Br)cn1-c1ncccc1Cl [Example I-1-22]
[1]
  activity in the Spodoptera frugiperda test, spray treatment (in words): good activity
  Kill rate after 7d in %: 100%
[3]
  activity in the Phaedon test (in words): good activity
  Kill rate after 7d in %: 100%
[4]
  logP: 2.39
[9]
  activity in the Myzus test, spray treatment (in words): good activity
  Kill rate after 5d in %: 100%
[10]
  activity in the Myzus test, oral (in words): good activity
  Kill rate after 5d in %: 100%

## Cc1cc(I)cc(C2=NOCCN2)c1NC(=O)c1cc(Br)nn1-c1ncccc1Cl [Example I-1-23]
[1]
  activity in the Spodoptera frugiperda test, spray treatment (in words): good activity
  Kill rate after 7d in %: 100%
[3]
  activity in the Phaedon test (in words): good activity
  Kill rate after 7d in %: 100%
[4]
  logP: 2.21
[9]
  activity in the Myzus test, spray treatment (in words): good activity
  Kill rate after 5d in %: 90%
[10]
  activity in the Myzus test, oral (in words): good activity
  Kill rate after 5d in %: 100%
